Assay results taken from patent publication US20260166039A1 (SCHRÖDINGER, INC., priority 2022, published 2026).

Target: T1, Wee1 kinase domain (Homo sapiens, UniProt P30291)
T1 construct: Wee1 kinase domain was purchased from Carna (catalog #05-177); purchased Carna 05-177
Test: Wee1 Kinase Biochemical Assay (ADP-Glo)
Conditions: 15 uM ATP
Procedure, shortened: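 The reaction mix held 1 nM Wee1 kinase domain, 15 uM ATP and 2 ng/mL Poly(Lys,Tyr 4:1) substrate and was left for 4 hours at 25 °C. ADP production was then measured with ADP-Glo, and percent inhibition was derived relative to DMSO and a saturating Wee1 inhibitor.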

[1] = class symbols, 1 nM Wee1 enzyme, 4 hours at 25° C.

T1 sequence (P30291 299-569 limits assumed): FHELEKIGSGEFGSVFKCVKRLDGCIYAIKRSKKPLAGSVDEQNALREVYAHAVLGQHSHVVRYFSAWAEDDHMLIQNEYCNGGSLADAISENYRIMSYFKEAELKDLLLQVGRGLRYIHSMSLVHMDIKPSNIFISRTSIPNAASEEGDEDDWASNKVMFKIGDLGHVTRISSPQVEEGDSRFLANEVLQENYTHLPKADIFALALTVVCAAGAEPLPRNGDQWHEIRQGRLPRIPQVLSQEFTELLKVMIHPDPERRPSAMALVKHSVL

Row | SMILES | IC50 (Wee1 kinase domain, ADP-Glo) [nM] | IC50 [1] [nM] | also measured
1 | C[C@H]1COC(=O)N1c1cccc(N2c3nc(Nc4cnn(C5CCNCC5)c4)ncc3[C@]3(C)COC(C)(C)C[C@H]23)n1 (single isomer, unassigned) [Example 254] | 10 to 100 |  | 
2 | Cc1cc(Nc2ncc3c(n2)N(c2cccc(N4C(=O)OC[C@@H]4C)n2)[C@H]2CC(C)(C)OC[C@@]32C)ccc1N1C[C@@H]2C[C@H]1CN2C (single isomer, unassigned) [Example 294] | 10 to 100 |  | 
3 | C[C@H]1COC(=O)N1c1cccc(N2c3nc(Nc4ccc(O[C@@H]5CCNC5)nc4)ncc3[C@]3(C)COC(C)(C)C[C@H]23)n1 (single isomer, unassigned) [Example 286] | 100 to 1000 |  | 
4 | CNCc1cccc(N2c3nc(NC45CC(C4)C5)ncc3[C@@]3(C)COC(C)(C)C[C@@H]23)n1 [Example 89, (4bR,8aR)-N-(bicyclo[1.1.1]pentan-1-yl)-4b,7,7-trimethyl-9-(6-((methylamino)methyl)pyridin-2-yl)-4b,5,7,8,8a,9-hexahydropyrano[3′,4′:4,5]pyrrolo[2,3-d]pyrimidin-2-amine] | ≥ 1000 |  | 
5 | CN1CC(n2cc(Nc3ncc4c(n3)N(c3cccc(N=S(C)(C)=O)n3)[C@H]3CC(C)(C)OC[C@@]43C)cn2)C1 (single isomer, unassigned) [Example 208] | 10 to 100 |  | 
6 | CN1CC(c2ccc(Nc3ncc4c(n3)N(c3cccc(N=S(C)(C)=O)n3)[C@H]3CC(C)(C)OC[C@@]43C)cc2F)C1 (single isomer, unassigned) [Example 185] | 100 to 1000 |  | 
7 | CN1C[C@H]2C[C@@H]1CN2c1ccc(Nc2ncc3c(n2)N(c2cccc(C(C)(C)O)n2)[C@H]2CC(C)(C)OC[C@@]32C)cc1F (single isomer, unassigned) [Example 428] |  | 100 to 1000 | 
8 | Cc1cc(Nc2ncc3c(n2)N(c2cccc(N4C(=O)OC[C@@H]4C)n2)[C@H]2CC(C)(C)OC[C@@]32C)ccc1C1CCN(C)CC1 (single isomer, unassigned) [Example 239] | < 10 |  | 
9 | CN1C[C@H]2C[C@@H]1CN2c1ccc(Nc2ncc3c(n2)N(c2cccc(N=S(C)(C)=O)n2)[C@H]2CC(C)(C)OC[C@@]32C)cc1 (single isomer, unassigned) [Example 121] | 100 to 1000 |  | 
10 | CN1C[C@@H]2C[C@H]1CN2c1ccc(Nc2ncc3c(n2)N(c2cccc(C(C)(C)O)n2)[C@H]2CC(C)(C)OC[C@@]32C)cc1Cl (single isomer, unassigned) [Example 436] |  | 10 to 100 | 
11 | CNCc1cccc(N2c3nc(Nc4cnnc(C)c4)ncc3[C@]3(C)COC(C)(C)C[C@H]23)n1 (single isomer, unassigned) [Example 477] |  | 100 to 1000 | 
12 | Cc1cc(Nc2ncc3c(n2)N(c2cccc(N=S(C)(C)=O)n2)[C@H]2CC(C)(C)OC[C@@]32C)ccc1N1CCN(C)CC1 (single isomer, unassigned) [Example 105] | 10 to 100 |  | 
13 | CNCc1cccc(N2c3nc(Nc4ccc(N5CCCCC5)cc4)ncc3[C@]3(C)COC(C)(C)C[C@H]23)n1 (single isomer, unassigned) [Example 1] | 10 to 100 |  | 
14 | CN1CC2(C1)CN(c1ccc(Nc3ncc4c(n3)N(c3cccc(N=S(C)(C)=O)n3)[C@H]3CC(C)(C)OC[C@@]43C)cc1)C2 (single isomer, unassigned) [Example 220] | 100 to 1000 |  | 
15 | CNCc1cccc(N2c3nc(Nc4ccc(N5C(=O)CC[C@@H]5C)cc4)ncc3[C@@]3(C)COC(C)(C)C[C@@H]23)n1 (single isomer, unassigned) [Example 28] | < 10 |  | 
16 | CC1(C)C[C@H]2N(c3cccc(N=S(C)(C)=O)n3)c3nc(Nc4ccn5ncnc5c4)ncc3[C@@]2(C)CO1 (single isomer, unassigned) [Example 385] | < 10 |  | 
17 | Cc1cc(Nc2ncc3c(n2)N(c2cccc(N=S(C)(C)=O)n2)C2CC(C)(C)OCC32C)cc(=O)n1C (single isomer, unassigned) [Example 816] |  |  | IC50 (1 nM Wee1 enzyme, 4 hours at 25° C): < 10 nM
18 | CN1CCC(n2ccc(Nc3ncc4c(n3)N(c3cccc(N=S(C)(C)=O)n3)C3CC(C)(C)OCC43C)cc2=O)CC1 (single isomer, unassigned) [Example 151] | 100 to 1000 |  | 
19 | CN1CC[C@](C)(c2ccc(Nc3ncc4c(n3)N(c3cccc(N=S(C)(C)=O)n3)[C@H]3CC(C)(C)OC[C@@]43C)cc2)C1 (single isomer, unassigned) [Example 167] | 10 to 100 |  | 
20 | Cc1cc(Nc2ncc3c(n2)N(c2cccc(C(C)(C)O)n2)[C@H]2CC(C)(C)OC[C@@]32C)ccc1N1C[C@@H]2C[C@H]1CN2C (single isomer, unassigned) [Example 430] |  | 10 to 100 | 
21 | C[C@H]1COC(=O)N1c1cccc(N2c3nc(Nc4ccn(C)c(=O)c4)ncc3[C@]3(C)COC(C)(C)C[C@H]23)n1 (single isomer, unassigned) [Example 340] | 100 to 1000 |  | 
22 | CC1(C)C[C@H]2N(c3cccc(N=S(C)(C)=O)n3)c3nc(Nc4ccncc4)ncc3[C@@]2(C)CO1 (single isomer, unassigned) [Example 512] |  | 100 to 1000 | 
23 | C[C@H]1COC(=O)N1c1cccc(N2c3nc(Nc4ccc(O[C@H]5CCNC5)nc4)ncc3[C@]3(C)COC(C)(C)C[C@H]23)n1 (single isomer, unassigned) [Example 284] | 10 to 100 |  | 

Further lines, with some results ahead:

Row | IC50 (Wee1 kinase domain, ADP-Glo) [nM] | IC50 [1] [nM] | SMILES | also measured
24 |  | ≥ 1000 | CN(C)Cc1cccc(N2c3nc(Nc4ccc(C(C)(C)C(=O)O)cc4)ncc3[C@]3(C)COC(C)(C)C[C@H]23)n1 [Example 610, 2-(4-(((4bS,8aS)-9-(6-((dimethylamino)methyl)pyridin-2-yl)-4b,7,7-trimethyl-4b,5,7,8,8a,9-hexahydropyrano[3′,4′:4,5]pyrrolo[2,3-d]pyrimidin-2-yl)amino)phenyl)-2-methylpropanoic acid] | 
25 |  | < 10 | CN1C[C@@H]2C[C@H]1CN2c1ccc(Nc2ncc3c(n2)N(c2cccc(N4C(=O)CCC4(C)C)n2)[C@@H]2CC(C)(C)OC[C@]32C)cc1 [Example 798, 5,5-dimethyl-1-(6-((4bR,8aR)-4b,7,7-trimethyl-2-((4-((1S,4S)-5-methyl-2,5-diazabicyclo[2.2.1]heptan-2-yl)phenyl)amino)-4b,7,8,8a-tetrahydropyrano[3′,4′:4,5]pyrrolo[2,3-d]pyrimidin-9(5H)-yl)pyridin-2-yl)pyrrolidin-2-one] | 
26 |  | 10 to 100 | CC1(C)C[C@@H]2N(c3cccc(N4CCOC4=O)n3)c3nc(Nc4ccc(C5CNC5)cc4)ncc3[C@]2(C)CO1 [Example 667, 3-(6-((4bS,8aS)-2-((4-(azetidin-3-yl)phenyl)amino)-4b,7,7-trimethyl-4b,7,8,8a-tetrahydropyrano[3′,4′:4,5]pyrrolo[2,3-d]pyrimidin-9(5H)-yl)pyridin-2-yl)oxazolidin-2-one] | 
27 |  | 10 to 100 | CC1(C)C[C@H]2N(c3cccc([C@@H]4CNCCO4)n3)c3nc(Nc4ccc(N5CCOCC5)cc4)ncc3[C@@]2(C)CO1 [Example 735, (4bR,8aR)-4b,7,7-trimethyl-9-(6-((S)-morpholin-2-yl)pyridin-2-yl)-N-(4-morpholinophenyl)-4b,5,7,8,8a,9-hexahydropyrano[3′,4′:4,5]pyrrolo[2,3-d]pyrimidin-2-amine] | 
28 |  | 10 to 100 | CN1CC[C@H](c2ccc(Nc3ncc4c(n3)N(c3cccc(N5CCOC5=O)n3)[C@H]3CC(C)(C)OC[C@@]43C)cc2)C1 (single isomer, unassigned) [Example 603] | 
29 |  | 100 to 1000 | CN[C@]1(C)CCc2ccc(N3c4nc(Nc5ccc(N6CCOCC6)cc5)ncc4[C@]4(C)COC(C)(C)C[C@H]34)nc21 (single isomer, unassigned) [Example 570] | 
30 |  | 10 to 100 | CN1CC[C@H](Oc2ccc(Nc3ncc4c(n3)N(c3cccc(N5CCCC5=O)n3)[C@H]3CC(C)(C)OC[C@@]43C)cc2)C1 [Example 619, 1-(6-((4bS,8aS)-4b,7,7-trimethyl-2-((4-(((S)-1-methylpyrrolidin-3-yl)oxy)phenyl)amino)-4b,7,8,8a-tetrahydropyrano[3′,4′:4,5]pyrrolo[2,3-d]pyrimidin-9(5H)-yl)pyridin-2-yl)pyrrolidin-2-one] | 
31 |  | 100 to 1000 | CN1CCC(n2cc(Nc3ncc4c(n3)N(c3cccc(N=S(C)(C)=O)c3)[C@H]3CC(C)(C)OC[C@@]43C)cn2)CC1 [Example 715, dimethyl((3-((4bS,8aS)-4b,7,7-trimethyl-2-((1-(1-methylpiperidin-4-yl)-1H-pyrazol-4-yl)amino)-4b,7,8,8a-tetrahydropyrano[3′,4′:4,5]pyrrolo[2,3-d]pyrimidin-9(5H)-yl)phenyl)imino)-16-sulfanone] | 
32 |  | < 10 | CN1CC2(C1)CN(c1ccc(Nc3ncc4c(n3)N(c3cccc(N5C(=O)CCC5(C)C)n3)[C@@H]3CC(C)(C)OC[C@]43C)cc1)C2 (single isomer, unassigned) [Example 786] | 
33 |  | ≥ 1000 | CC1(C)C[C@@H]2N(c3ccc4c(n3)[C@@](C)(N)CC4)c3nc(Nc4ccc(N5CCOCC5)cc4)ncc3[C@]2(C)CO1 (single isomer, unassigned) [Example 566] | 
34 |  | 100 to 1000 | CN1C[C@@H]2CN(c3ccc(Nc4ncc5c(n4)N(c4cccc(N6CCOC6=O)n4)[C@H]4CC(C)(C)OC[C@@]54C)cc3)C[C@@H]2C1 [Example 693, 3-(6-((4bS,8aS)-46,7,7-trimethyl-2-((4-((3aR,6aS)-5-methylhexahydropyrrolo[3,4-c]pyrrol-2(1H)-yl)phenyl)amino)-4b,7,8,8a-tetrahydropyrano[3′,4′:4,5]pyrrolo[2,3-d]pyrimidin-9(5H)-yl)pyridin-2-yl)oxazolidin-2-one] | 
35 |  | 100 to 1000 | C[C@H]1CCC(=O)N1c1cccc(N2c3nc(Nc4ccc(N5CCN(C)CC5)cc4)ncc3[C@]3(C)COC(C)(C)C[C@H]23)n1 (single isomer, unassigned) [Example 582] | 
36 |  | 10 to 100 | Cc1cc(Nc2ncc3c(n2)N(c2cccc(N4CCOC4=O)n2)[C@H]2CC(C)(C)OC[C@@]32C)ccc1N1C[C@@H]2C[C@H]1CN2C [Example 655, 3-(6-((4bS,8aS)-4b,7,7-trimethyl-2-((3-methyl-4-((1S,4S)-5-methyl-2,5-diazabicyclo[2.2.1]heptan-2-yl)phenyl)amino)-4b,7,8,8a-tetrahydropyrano[3′,4′:4,5]pyrrolo[2,3-d]pyrimidin-9(5H)-yl)pyridin-2-yl)oxazolidin-2-one] | 
